In patent US20230072683A1, “PYRIDO-PYRIMIDIN DERIVATIVES AND PHARMACEUTICAL COMPOSITION, FOR USE IN PREVENTING OR TREATING PI3 KINASE RELATED DISEASES, COMPRISING SAME AS ACTIVE INGREDIENT” (BORYUNG PHARMACEUTICAL CO., LTD, priority 2019, published 2023):
Like-named read-outs stand apart in the source and are kept apart here.

Tests used:
[1] = molecular target: PI3K-δ (PI3K(p1108/p857) (h)) (Homo sapiens, UniProt O00329); test: Evaluation of inhibitory activity against PI3K-δ (HTRF kinase assay); format: biochemical; conditions: for inhibition at 0.01 µM: compound concentration 0.01 μM, read-out: EXP_VALUE(% Inhibition) PI3K-δ 0.01 μM; for inhibition at 0.1 µM: read-out: EXP_VALUE(% Inhibition) PI3K-δ 0.1 μM
In short: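 HTRF read-out (665/620 nm ratio ×10000) used Eu-labelled anti-GST, GST-tagged GRP1 PH domain and streptavidin-allophycocyanin after EDTA/PIP3 stop.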

DNA-PK(h) = DNA-PK(h) (Homo sapiens, UniProt P78527); test: Evaluation of inhibitory activity against DNA-PK (HTRF kinase assay, GST-cMyc-p53 substrate); format: biochemical; conditions: for inhibition at 0.01 µM: compound concentration 0.01 μM, read-out: EXP_VALUE(% Inhibition) DNA-PK(h) 0.01 μM; for inhibition at 0.1 µM: read-out: EXP_VALUE(% Inhibition) DNA-PK(h) 0.1 μM
In short: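 p53 Ser15 phosphorylation by human DNA-PK was measured by time-resolved FRET ratio (665/620 nm ×10000) using Eu-labelled anti-phospho-Ser15 and d2 anti-GST antibodies. Substrate GST-cMyc-p53 at 50 μM; Mg/ATP-initiated, 30 min at room temperature, EDTA stop.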

Chain of PI3K-δ (PI3K(p1108/p857) (h)) (O00329 whole entry, the tested form may be a part): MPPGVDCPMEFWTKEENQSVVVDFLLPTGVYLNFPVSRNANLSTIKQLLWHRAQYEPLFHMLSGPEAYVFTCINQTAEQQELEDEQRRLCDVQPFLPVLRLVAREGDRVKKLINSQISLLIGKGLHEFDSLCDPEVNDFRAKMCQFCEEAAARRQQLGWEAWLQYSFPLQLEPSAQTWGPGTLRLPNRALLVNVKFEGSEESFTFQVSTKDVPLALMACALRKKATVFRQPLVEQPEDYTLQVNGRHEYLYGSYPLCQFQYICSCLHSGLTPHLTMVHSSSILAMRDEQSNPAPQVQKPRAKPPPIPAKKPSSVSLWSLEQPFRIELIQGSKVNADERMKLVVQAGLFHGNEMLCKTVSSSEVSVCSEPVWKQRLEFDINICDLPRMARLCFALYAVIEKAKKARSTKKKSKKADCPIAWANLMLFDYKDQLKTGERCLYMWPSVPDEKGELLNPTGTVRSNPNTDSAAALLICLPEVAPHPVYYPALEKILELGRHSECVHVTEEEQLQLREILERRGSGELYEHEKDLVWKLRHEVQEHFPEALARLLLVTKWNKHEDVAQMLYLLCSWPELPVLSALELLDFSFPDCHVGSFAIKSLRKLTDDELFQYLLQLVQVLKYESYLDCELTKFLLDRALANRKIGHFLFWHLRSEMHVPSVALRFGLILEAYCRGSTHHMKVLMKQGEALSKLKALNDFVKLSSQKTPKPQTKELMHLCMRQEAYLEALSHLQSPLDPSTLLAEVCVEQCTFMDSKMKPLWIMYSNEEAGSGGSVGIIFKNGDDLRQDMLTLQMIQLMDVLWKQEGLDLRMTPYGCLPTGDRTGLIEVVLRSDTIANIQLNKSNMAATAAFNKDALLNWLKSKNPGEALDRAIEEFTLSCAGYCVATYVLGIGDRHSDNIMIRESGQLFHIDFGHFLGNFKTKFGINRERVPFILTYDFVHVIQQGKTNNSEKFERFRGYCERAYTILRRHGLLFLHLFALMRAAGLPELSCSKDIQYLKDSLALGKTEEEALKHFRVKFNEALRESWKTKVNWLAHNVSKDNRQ
Chain of PI3K-δ (PI3K(p1108/p857) (h)) (P27986 whole entry partner, the tested form may be a part): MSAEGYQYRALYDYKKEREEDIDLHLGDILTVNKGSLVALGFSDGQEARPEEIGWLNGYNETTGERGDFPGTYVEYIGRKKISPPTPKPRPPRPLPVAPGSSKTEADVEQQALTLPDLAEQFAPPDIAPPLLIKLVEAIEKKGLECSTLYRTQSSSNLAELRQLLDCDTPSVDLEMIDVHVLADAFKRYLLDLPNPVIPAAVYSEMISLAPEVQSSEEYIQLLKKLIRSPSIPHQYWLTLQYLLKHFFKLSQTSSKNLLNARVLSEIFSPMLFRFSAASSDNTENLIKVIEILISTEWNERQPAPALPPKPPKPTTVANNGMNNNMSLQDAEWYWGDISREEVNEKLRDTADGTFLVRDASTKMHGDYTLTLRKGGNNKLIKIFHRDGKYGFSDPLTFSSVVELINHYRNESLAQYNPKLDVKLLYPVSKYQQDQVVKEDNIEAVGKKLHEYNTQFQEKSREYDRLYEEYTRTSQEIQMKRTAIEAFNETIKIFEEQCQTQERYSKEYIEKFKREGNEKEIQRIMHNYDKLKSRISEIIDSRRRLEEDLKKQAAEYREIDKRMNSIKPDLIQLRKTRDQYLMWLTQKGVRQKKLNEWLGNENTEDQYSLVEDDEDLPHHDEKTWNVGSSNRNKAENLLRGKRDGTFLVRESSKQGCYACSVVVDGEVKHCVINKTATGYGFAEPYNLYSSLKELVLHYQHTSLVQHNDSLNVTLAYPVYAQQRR

Row | inhibition at 0.01 µM [1] | inhibition at 0.01 µM (DNA-PK(h)) | inhibition at 0.1 µM ([1]; compound concentration 0.1 μM) | inhibition at 0.1 µM (DNA-PK(h); compound concentration 0.1 μM) | inhibition at 0.1 µM ([1]; compound at 0.1 μM) | inhibition at 0.1 µM (DNA-PK(h); compound at 0.1 μM) | Compound
1 | 78% | 38% | – | – | – | – | C[C@H](Nc1ncnc2[nH]ccc(=O)c12)c1c(Cl)c2cccc(-c3cnc(OCC(F)(F)F)nc3)c2c(=O)n1-c1ccccc1 [Example 184, (S)-4-((1-(4-chloro-1-oxo-2-phenyl-8-(2-(2,2,2-trifluoroethoxy)pyrimidin-5-yl)-1,2-dihydroisoquinolin-3-yl)ethyl)amino)pyrido[2,3-d]pyrimidin-5(8H)-one]
2 | 84% | 35% | – | – | – | – | C[C@H](Nc1ncnc2[nH]ccc(=O)c12)c1c(Cl)c2cccc(-c3cnc(OCc4ccccc4)nc3)c2c(=O)n1-c1ccccc1 [Example 146, (S)-4-((1-(8-(2-(benzyloxy)pyrimidin-5-yl)-4-chloro-1-oxo-2-phenyl-1,2-dihydroisoquinolin-3-yl)ethyl)amino)pyrido[2,3-d]pyrimidin-5(8H)-one]
3 | 42% | 27% | – | – | – | – | C[C@H](Nc1ncnc2[nH]ccc(=O)c12)c1c(Cl)c2cccc(-c3ccc(C4CC4)nc3)c2c(=O)n1-c1ccccc1 [Example 46, (S)-4-((1-(4-chloro-8-(6-cyclopropylpyridin-3-yl)-1-oxo-2-phenyl-1,2-dihydroisoquinolin-3-yl)ethyl)amino)pyrido[2,3-d]pyrimidin-5(8H)-one]
4 | 57% | 19% | – | – | – | – | C[C@H](Nc1ncnc2[nH]ccc(=O)c12)c1c(Cl)c2cccc(-c3cnc(N4CCCCC4)nc3)c2c(=O)n1-c1ccccc1 [Example 224, (S)-4-((1-(4-chloro-1-oxo-2-phenyl-8-(2-(piperidin-1-yl)pyrimidin-5-yl)-1,2-dihydroisoquinolin-3-yl)ethyl)amino)pyrido[2,3-d]pyrimidin-5(8H)-one]
5 | 39% | 18% | 89% | 62% | – | – | C[C@H](Nc1ncnc2[nH]ccc(=O)c12)c1c(Cl)c2cccc(C#Cc3ccc(C(F)(F)F)cc3)c2c(=O)n1-c1ccccc1 [Example 315, (S)-4-((1-(4-chloro-1-oxo-2-phenyl-8-((4-(trifluoromethyl)phenyl)ethynyl)-1,2-dihydroisoquinolin-3-yl)ethyl)amino)-5-oxo-5,8-dihydropyrido[2,3-d]pyrimidin-5(8H)-one, 2,2,2-trifluoroacetate]
6 | 91% | 15% | – | – | – | – | C[C@H](Nc1ncnc2[nH]ccc(=O)c12)c1c(Cl)c2cccc(C(=O)NCc3ccccc3)c2c(=O)n1-c1ccccc1 [Example 280, (S)—N-benzyl-4-chloro-1-oxo-3-(1-((5-oxo-5,8-dihydropyrido[2,3-d]pyrimidin-4-yl)amino)ethyl)-2-phenyl-1,2-dihydroisoquinoline-8-carboxamide]
7 | – | – | – | – | 90% | 32% | C[C@H](Nc1ncnc2[nH]ccc(=O)c12)c1c(Cl)c2cccc(C(F)(F)F)c2c(=O)n1-c1ccccc1 [Example 389, (S)-4-((1-(4-chloro-1-oxo-2-phenyl-8-(trifluoromethyl)-1,2-dihydroisoquinolin-3-yl)ethyl)amino)pyrido[2,3-d]pyrimidin-5(8H)-one]
8 | 71% | 40% | 87% | 77% | – | – | C[C@H](Nc1ncnc2[nH]ccc(=O)c12)c1c(Cl)c2cccc(C#N)c2c(=O)n1-c1ccccc1 [Example 265, (S)-4-chloro-1-oxo-3-(1-((5-oxo-5,8-dihydropyrido[2,3-d]pyrimidin-4-yl)amino)ethyl)-2-phenyl-1,2-dihydroisoquinoline-8-carbonitrile]
9 | – | – | – | – | 72% | 71% | CCCOC(C)(C)c1ncc(-c2cccc3c(Cl)c([C@H](C)Nc4ncnc5[nH]ccc(=O)c45)n(-c4ccccc4)c(=O)c23)cn1 [Example 406, (S)-4-((1-(4-chloro-1-oxo-2-phenyl-8-(2-(2-propoxypropan-2-yl)pyrimidin-5-yl)-1,2-dihydroisoquinolin-3-yl)ethyl)amino)pyrido[2,3-d]pyrimidin-5(8H)-one]
10 | 82% | 38% | 96% | 85% | – | – | C[C@H](Nc1ncnc2[nH]ccc(=O)c12)c1cc2cccc(-c3ccc(C#N)cc3)c2c(=O)n1-c1ccccc1 [Example 23, (S)-4-(1-oxo-3-(1-((5-oxo-5,8-dihydropyrido[2,3-d]pyrimidin-4-yl)amino)ethyl)-2-phenyl-1,2-dihydroisoquinolin-8-yl)benzonitrile]
11 | 23% | 19% | 65% | 35% | – | – | C[C@H](Nc1ncnc2[nH]ccc(=O)c12)c1cc2cccc(-c3nc4ccccc4o3)c2c(=O)n1-c1ccccc1 [Example 318, (S)-4-((1-(8-(benzo[d]oxazol-2-yl)-1-oxo-2-phenyl-1,2-dihydroisoquinolin-3-yl)ethyl)amino)pyrido[2,3-d]pyrimidin-5(8H)-one]
12 | 85% | 29% | – | – | – | – | C[C@H](Nc1ncnc2[nH]ccc(=O)c12)c1c(Cl)c2cccc(-c3cccc4c3cnn4C)c2c(=O)n1-c1ccccc1 [Example 237, (S)-4-((1-(4-chloro-8-(1-methyl-1H-indazol-4-yl)-1-oxo-2-phenyl-1,2-dihydroisoquinolin-3-yl)ethyl)amino)pyrido[2,3-d]pyrimidin-5(8H)-one]
13 | 3.3% | 3% | 14.5% | 2.7% | – | – | C[C@H](Nc1ncnc2[nH]ccc(=O)c12)c1c(Cl)c2cccc(-c3cnc(Cl)c4ccccc34)c2c(=O)n1-c1ccccc1 [Example 69, (S)-1,4′-dichloro-3′-(1-((5-oxo-5,8-dihydropyrido[2,3-d]pyrimidin-4-yl)amino)ethyl)-2′-phenyl-(4,8′-biisoquinolin)-1′(2′H)-one]
14 | 3% | -2% | 19% | 35% | – | – | C[C@H](Nc1ncnc2[nH]ccc(=O)c12)c1c(Cl)c2cccc(N3CCC[C@H]3CN3CCCC3)c2c(=O)n1-c1ccccc1 [Example 338, 4-(((S)-1-(4-chloro-1-oxo-2-phenyl-8-((S)-2-(pyrrolidin-1-ylmethyl)pyrrolidin-1-yl)-1,2-dihydroisoquinolin-3-yl)ethyl)amino)pyrido[2,3-d]pyrimidin-5(8H)-one]
15 | 58% | 67% | – | – | – | – | C[C@H](Nc1ncnc2[nH]ccc(=O)c12)c1c(Cl)c2cccc(-c3cnc(C4CC4)nc3)c2c(=O)n1-c1ccccc1 [Example 168, (S)-4-((1-(4-chloro-8-(2-cyclopropylpyrimidin-5-yl)-1-oxo-2-phenyl-1,2-dihydroisoquinolin-3-yl)ethyl)amino)pyrido[2,3-d]pyrimidin-5(8H)-one]
16 | 80% | 75% | 96% | 98% | – | – | C[C@H](Nc1ncnc2[nH]ccc(=O)c12)c1c(Br)c2cccc(-c3ccc(F)cc3)c2c(=O)n1-c1ccccc1 [Example 18, (S)-4-((1-(4-bromo-8-(4-fluorophenyl)-1-oxo-2-phenyl-1,2-dihydroisoquinolin-3-yl)ethyl)amino)pyrido[2,3-d]pyrimidin-5(8H)-one]
